According to patent US12012467B2, “Small molecule DCN1 inhibitors and therapeutic methods using the same” (THE REGENTS OF THE UNIVERSITY OF MICHIGAN, priority 2017, dated 2024):
Like-named read-outs stand apart in the source and are kept apart here. Numbered stars: 1 amine (or outer) side, 2 acyl side, 3 side chain; on linkers, the order of the positions; unused ones are H or OH. Square brackets hold non-standard residues; d marks the D form. Peptide text beside a SMILES is read from it. * marks the point of attachment. Ala(6-iPr-benzothiazol-2-yl) = CC(C)c1ccc2nc(C[C@H](N)C(=O)O)sc2c1; Abu(4,4,4-F3) = N[C@@H](CC(F)(F)F)C(=O)O; 2Nal = N[C@@H](Cc1ccc2ccccc2c1)C(=O)O; Gly(4-THP) = N[C@H](C(=O)O)C1CCOCC1; Lac = C[C@H](O)C(=O)O; CO = O=C([*:1])[*:2]; Propionyl = CCC(=O)*; Moc = COC(=O)*

Biological target: DCN1 (Homo sapiens (Human), UniProt Q96GG9)
Sequence (Q96GG9 58-259): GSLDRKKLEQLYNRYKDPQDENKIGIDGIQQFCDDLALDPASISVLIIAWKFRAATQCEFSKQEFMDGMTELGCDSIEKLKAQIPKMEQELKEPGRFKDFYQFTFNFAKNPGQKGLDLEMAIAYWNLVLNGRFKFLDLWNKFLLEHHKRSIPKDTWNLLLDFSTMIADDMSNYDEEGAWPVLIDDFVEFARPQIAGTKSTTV
Experiment: Competitive FP binding assay
In short: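 FP competition with DCN1 in 100 mM phosphate pH 6.5, 0.02% Tween-20, 2% DMSO, probe 5 nM final. Equilibrated 30 min at room temperature with shaking. DCN1 was His6-tagged (uncleaved), expressed in E. coli Rosetta2 and purified by Ni-NTA and gel filtration.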

[1] = read-out: Binding affinity to DCN1 (IC50 (nM))
[2] = bounds given in μM, read-out: Binding affinity to DCN1 (IC50)

Structure (SMILES) | IC50 [1] [nM] | IC50 [2] [nM]
CCC(=O)N[C@@H](Cc1nc2ccc(Cl)cc2o1)C(=O)N[C@H](C(=O)N[C@@H](CCCCN)C(=O)NC(c1ccccc1)c1ccccc1)[C@@H](C)CC [Example 156] | 194 | –
CC[C@H](C)[C@H](NC(=O)[C@H](Cc1ccc2ccccc2c1)NC(=O)OC)C(=O)N[C@@H](CCCCN)C(=O)N[C@@H](CC(C)C)C(N)=O [Example 170] (Moc-[2Nal]IKL-NH2) | – | > 10000
CC(C)c1ccc2nc(C[C@H](NC(=O)C3CC3)C(=O)N[C@H](CN)C3CCCCC3)sc2c1 [Example 262] | 155 | –
CCC(=O)N[C@@H](Cc1nc2ccc(C(C)C)cc2s1)C(=O)N[C@H](CNC(=O)NC1CCN(C)CC1)C1CCCCC1 [Example 75] | 75.6 | –
CCC(=O)N[C@@H](Cc1nc2ccc(C(C)C)cc2s1)C(=O)N[C@@H](CC(F)(F)F)C(=O)N[C@@H](CCCCN)C(=O)N[C@@H](CC(C)C)C(N)=O [Example 284] (Propionyl-[Ala(6-iPr-benzothiazol-2-yl)][Abu(4,4,4-F3)]KL-NH2) | 154 | –
CC[C@H](C)[C@H](NC(=O)[C@H](Cc1nc2ccc(C(C)C)cc2s1)NC(=O)OC)C(=O)N[C@@H](CCCCN)C(=O)N[C@@H](CC(C)C)C(N)=O [Example 279] (Moc-[Ala(6-iPr-benzothiazol-2-yl)]IKL-NH2) | 217 | –
CCC(=O)N[C@@H](Cc1nc2ccc(C(C)C)cc2s1)C(=O)N[C@H](CN)Cc1ccccc1 (stereo in doubt) [Example 89] | – | > 10000
CCC(=O)N[C@@H](Cc1cc2ccccc2cn1)C(=O)N[C@H](C(=O)N[C@@H](CCCCN)C(=O)NC(c1ccccc1)c1ccccc1)[C@@H](C)CC [Example 131] | 2610 | –
CCC(=O)N[C@@H](Cc1nc2ccc(C(C)C)cc2s1)C(=O)N[C@H](CNC(=O)NC1CCNCC1)C1CCCCC1 [DI-749] | 52.9 | –
CCC(=O)N[C@H](CNC(=O)C1(N)CCCC1)Cc1nc2ccc(C(C)C)cc2s1 [Example 114] | 1560 | –
CCC(=O)N[C@H](CNC(=O)C1(N)CCC(F)(F)CC1)Cc1nc2ccc(C(C)C)cc2s1 [Example 111] | – | > 5000
CC[C@H](C)[C@H](NC(=O)[C@H](Cc1nc2ccc(C(C)C)cc2s1)NC(=O)NC)C(=O)N[C@@H](CCCCN)C(=O)N[C@@H](CC(C)C)C(N)=O [Example 278] ({NHMe-CO}-[Ala(6-iPr-benzothiazol-2-yl)]IKL-NH2) | 68.2 | –
CCC(=O)N[C@@H](Cc1nc(CC)c(-c2ccccc2)s1)C(=O)N[C@H](CN)Cc1ccccc1 [Example 225] | – | > 3000
CCC(=O)N[C@@H](Cc1nc2ccc(C(C)C)cc2s1)C(=O)N[C@H](C(=O)N[C@@H](CCCCN)C(=O)N[C@@H](CC(C)C)C(N)=O)[C@@H](C)CC [Example 273] (Propionyl-[Ala(6-iPr-benzothiazol-2-yl)]IKL-NH2) | 51 | –
CCC(=O)N[C@@H](Cc1nc2ccc(C(C)C)cc2s1)C(=O)N[C@@H](CN)Cc1ccccc1 (stereo in doubt) [Example 91] | – | > 10000
CCC(=O)N[C@@H](Cc1nc(C)c(-c2cccc(Cl)c2)s1)C(=O)N[C@H](CN)Cc1ccccc1 [Example 103] | 264 | –
CCC(=O)N[C@@H](Cc1nc2ccc(C(C)C)cc2s1)C(=O)N[C@H](C(=O)NCCN1CCOCC1)C1CCN(C(=O)OC(C)(C)C)CC1 [Example 264] | 1500 | –
CCC(=O)N[C@@H](Cc1nc2ccc(C(C)(C)C)cc2s1)C(=O)N[C@H](CN)Cc1ccccc1 [Example 223] | 949 | –
CCC(=O)N[C@@H](Cc1nc(C)c(-c2ccc([N+](=O)[O-])cc2)s1)C(=O)N[C@H](CN)Cc1ccccc1 [Example 106] | – | > 10000
CCC(=O)N[C@@H](Cc1nc2ccc(C(C)C)cc2s1)C(=O)N[C@H](Cn1cc(CN)nn1)C1CCCCC1 [Example 82] | 243 | –
CC[C@H](C)[C@H](NC(=O)[C@H](Cc1ccc2ccccc2c1)NC(=O)[C@H](C)O)C(=O)N[C@@H](CCCCN)C(=O)N[C@@H](CC(C)C)C(N)=O [Example 168] (H-[Lac][2Nal]IKL-NH2) | – | > 10000
CC[C@H](C)[C@H](NC(=O)[C@H](Cc1ccc2ccccc2c1)NC(C)=O)C(=O)N[C@@H](CCCCN)C(=O)N[C@@H](CC(C)C)C(N)=O [Example 1] (Ac-[2Nal]IKL-NH2) | – | > 10000
CCC(=O)N[C@@H](Cc1nc2ccc(C(C)C)cc2s1)C(=O)N[C@H](CNS(=O)(=O)C1CCNCC1)C1CCCCC1 [DI-777] | 55.3 | –
CCC(=O)N[C@@H](Cc1nc2ccc(C(C)C)cc2s1)C(=O)N[C@H](COCCN1CCOCC1)C1CCCCC1 [Example 85] | 138 | –
CCC(=O)N[C@@H](Cc1nc2ccc(Cl)cc2s1)C(=O)N[C@H](CN)Cc1ccccc1 [Example 86] | 491 | –
CCC(=O)N[C@@H](Cc1nc2ccc(C(C)C)cc2s1)C(=O)N[C@H](CN1CCOCC1)C1CCCCC1 [Example 80, (S)—N—((S)-1-cyclohexyl-2-morpholinoethyl)-3-(6-isopropylbenzo[d]thiazol-2-yl)-2-propionamidopropanamide] | 157 | –
CCC(=O)N[C@@H](Cc1nc(C)c(-c2ccc(C#N)cc2)s1)C(=O)N[C@H](CN)Cc1ccccc1 [Example 105] | – | > 10000
CC[C@H](C)[C@H](NC(=O)[C@@H](N)Cc1nc2ccc(C(C)C)cc2s1)C(=O)N[C@@H](CCCCN)C(=O)N[C@@H](CC(C)C)C(N)=O [Example 272] (H-[Ala(6-iPr-benzothiazol-2-yl)]IKL-NH2) | – | > 10000

Now from value to molecule:

IC50 [1] [nM] | IC50 [2] [nM] | Structure (SMILES)
651 | – | CCC(=O)N[C@@H](Cc1ccc2ccccc2c1)C(=O)N[C@H](C(=O)N[C@@H](CCCCN)C(=O)N[C@@H]1CCOc2ccccc21)[C@@H](C)CC [Example 17]
81.2 | – | CCC(=O)N[C@@H](Cc1cn2cc(C(C)C)ccc2n1)C(=O)N[C@H](C(=O)N[C@@H](CCCCN)C(=O)N[C@@H]1CCOc2ccccc21)C1CCOCC1 [210 & 211]
169 | – | CCC(=O)N[C@@H](Cc1nc2ccc(CC)cc2s1)C(=O)N[C@H](C(=O)N[C@@H](CCCCN)C(=O)N[C@@H]1CCOc2ccccc21)C1CCOCC1 [Example 186]
464 | – | CCC(=O)N[C@@H](Cc1ccc2ccccc2c1)C(=O)N[C@H](C(=O)N[C@@H](CCCCN(C)C)C(=O)NC(c1ccccc1)c1ccccc1)C1CCCC1 [Example 146]
402 | – | CCC(=O)N[C@@H](Cc1ccc2ccccc2c1)C(=O)N[C@H](C(=O)N[C@@H](CCCCN)C(=O)N[C@@H]1CCCc2ccccc21)C1CCCC1 [Example 148]
795 | – | CCC(=O)N[C@@H](Cc1ccc2ccccc2c1)C(=O)N[C@H](C(=O)N[C@@H](CCCCN)C(=O)N[C@H]1CCCc2ccccc21)[C@@H](C)CC [Example 16]
230 | – | CCC(=O)N[C@@H](Cc1nc2ccc(C)cc2s1)C(=O)N[C@H](C(=O)N[C@@H](C[C@H]1CC[C@H](CN)CC1)C(=O)N[C@@H]1CCOc2ccccc21)C1CCOCC1 [Example 189]
– | > 3000 | CCC(=O)N[C@@H](Cc1ccc2ccccc2c1)C(=O)N[C@H](C(=O)N[C@@H](CCCCN)C(=O)N[C@H]1CNCc2ccccc21)C1CCCC1 [Example 159]
111 | – | CCC(=O)N[C@@H](Cc1nc2ccc(C)cc2s1)C(=O)N[C@@H](C[C@H]1CC[C@H](CN)CC1)C(=O)N[C@@H](CCCCN)C(=O)N[C@@H]1CCOc2ccccc21 [Example 185]
157 | – | CCC(=O)N[C@@H](Cc1cn2cc(Cl)ccc2n1)C(=O)N[C@H](C(=O)N[C@@H](CCCCN)C(=O)N[C@@H]1CCOc2ccccc21)C1CCOCC1 [Example 208]
251 | – | CCC(=O)N[C@@H](Cc1nc2ccc(Cl)cc2s1)C(=O)N[C@@H](Cc1ccccn1)C(=O)N[C@@H](CCCCN)C(=O)N[C@@H]1CCOc2ccccc21 [Example 202]
– | > 1000 | CCC(=O)N[C@@H](Cc1nc2ccc(C)cc2s1)C(=O)N[C@H](C(=O)N[C@@H](CCCCN)C(=O)N[C@@H]1CCOc2ccccc21)C1CCNCC1 [Example 180]
1510 | – | CCC(=O)N[C@@H](Cc1nc2ccc(Cl)cc2s1)C(=O)N[C@H](C(=O)N[C@@H](CCCCN)C(=O)NCc1ccncc1)C1CCOCC1 [Example 243]
149 | – | CCC(=O)N[C@@H](Cc1nc2ccc(C)cc2s1)C(=O)N[C@@H](Cc1ccncc1)C(=O)N[C@@H](CCCCN)C(=O)N[C@@H]1CCOc2ccccc21 [Example 184]
280 | – | CCC(=O)N[C@@H](Cc1nc2ccc(C(C)C)cc2s1)C(=O)N[C@H](C(=O)N[C@@H](CCCCN)C(=O)N[C@@H](CC(C)C)C(N)=O)C1CCOCC1 [Example 2287] (Propionyl-[Ala(6-iPr-benzothiazol-2-yl)][Gly(4-THP)]KL-NH2)
1750 | – | CCC(=O)N[C@@H](Cc1ccc2ccccc2c1)C(=O)N[C@H](C(=O)N[C@@H](CCCCN)C(=O)NC(c1ccc(F)cc1)c1ccc(F)cc1)C1CCCC1 [Example 138]
77.5 | – | CCC(=O)N[C@@H](Cc1nc2ccc(CC)cc2s1)C(=O)N[C@H](C(=O)N[C@@H](CCCCN)C(=O)NC(c1ccccc1)c1ccccc1)C1CCCC1 [Example 174]
